Data on eleven compounds can be found in patent publication US20250074910A1, “MENIN INHIBITOR AND USE THEREOF” (HITGEN INC., priority 2021, published 2025).

Bounds are passed on as bounds.

Data set [1] concerns OCI-AML3. Description: Cell proliferation inhibition (CellTiter-Glo), OCI-AML3 (NPM1 mutation). In kind it is cell-based. The settings on record: OCI-AML3 cells. In short, it runs like this: (§1)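 IC50 values come from dose-response fitting of CellTiter-Glo luminescence after 72-168 h compound exposure (final 1 nM-10 μM) at 37° C and 5% CO2, with 5,000-20,000 cells plated per well.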

Data set [2] relates to MV4-11. Description: Cell proliferation inhibition (CellTiter-Glo), MV4-11. In kind it is cell-based. The settings on record: MV4-11 cells. Put shortly:
as §1
(Cellular ATP, detected with luciferase, serves as a proxy for viable cell number.)

The nature of data set [3]: Stability in mouse liver microsomes. Format: in vitro ADME. Conditions: 1.00 μM compound, NADPH; for half-life at 1 μM: liver microsomes, pH 7.4, 0.5 mg/mL microsomal protein, read-out: Half life T1/2, mouse liver microsomes. On the procedure:
(§2) Test Example 3: Test of Stability of Compounds in Liver Microsome
(§3) Test purpose: To determine the stability of some of the compounds of the present disclosure in mouse, dog and human liver microsomes by LC-MS/MS method.
(§4) Test materials: The test drugs were in-house prepared example compounds of the present disclosure; the positive reference compound SNDX-5613 was prepared by the method of Example 253 in patent WO2017214367; the control compound 1 was prepared by the method of Example 64 in WO2017214367; liver microsomes were purchased from CORNING.
(§5) The total volume of each incubation system was approximately 45 μL, and the medium was 100 mM phosphate buffer (PBS, pH 7.4), including liver microsomal protein at a final concentration of 0.5 mg/mL, 1.00 μM compound and 2.00 mM NADPH, and the organic phase content was <1%. Incubation was performed in a 37° C. incubator, and 135 μL of ice-cold acetonitrile was added after 0, 5, 15, 30 and 60 min of reaction to terminate the reaction. The positive control group was incubated with 1.00 μM Ketanserin, 0.5 mg/mL liver microsomal protein and 2.00 mM NADPH in a 37° C. incubator for 0, 5, 15, 30 and 60 min respectively, and then 135 μL of ice-cold acetonitrile was added to terminate the reaction. The 96-well plates were shaken at 600 rpm for 10 min and then centrifuged at 4700 rpm at 4° C. for 15 min. 80 μL of supernatant was mixed with 320 μL of pure water, and the remaining amount of the compound was detected by LC-MS/MS method. The in vitro half life (T½) and intrinsic clearance (CLint) were calculated according to the following formula:
(§6) Intrinsic clearance (Clint)=(0.693/T1/2)×(1/liver microsome concentration)×conversion factor. k is the linear regression slope of the remaining percentage of the ln compound-incubation time.

The nature of data set [4]: Stability in dog liver microsomes. In kind it is in vitro ADME. Conditions: 0.5 mg/mL microsomal protein, 1.00 μM compound, NADPH; for half-life at 1 μM: dog, liver microsomes, pH 7.4, Dog, read-out: Half life T1/2, dog liver microsomes. On the procedure: as §2, §3, §4, §5, §6
Data set [5] in a line: Stability in human liver microsomes. In kind it is in vitro ADME. The settings on record: 0.5 mg/mL microsomal protein, 1.00 μM compound, NADPH; for half-life at 1 μM: human, liver microsomes, pH 7.4, Human, read-out: Half life T1/2, human liver microsomes. As for the experimental part: as §2, §3, §4, §5, §6
On the technique in general: Liver microsomes are vesicles of endoplasmic reticulum, rich in cytochrome P450 enzymes.

Data set [6] addresses Menin/MLL-4-43 peptide interaction (Homo sapiens (Human), UniProt O00255). Description: Menin-MLL interaction inhibitory activity assay (fluorescence polarization competition). Format: binding. Conditions: FITC-MLL4-43-peptide, Menin recombinant protein. Put shortly: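 Menin (8 nM solution) was preincubated 15 min with compound, then FITC-MLL4-43 peptide (10 nM solution) was added and shaken for 60 min at 25 °C. The buffer was 50 mM Tris pH 7.5, 50 mM NaCl, 1 mM DTT. IC50 was derived from fluorescence polarization read at 485/520 nm.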
In general terms: Polarisation of emitted light reports the rotation of a fluorescent probe.

Data set [7] deals with MOLM-13. Description: Cell proliferation inhibition (CellTiter-Glo), MOLM-13. In kind it is cell-based. Conditions: MOLM-13 cells. As for the experimental part: Test Example 2: Test of the Inhibitory Ability of Menin-MLL Interaction Inhibitors on Cell Proliferation
The inhibitory ability of the compounds of the present disclosure on the proliferation of tumor cell lines (including cell lines containing MLL fusion protein such as MV4-11, MOLM-13, THP-1 and NOMO-1, control cell lines without MLL fusion protein such as HL-60, K562 and MOLM-16, and cell lines containing NPM1 mutation such as OCI-AML3) was evaluated by using the cell viability analysis method. The cells were plated in 96-well plates at a certain concentration (e.g., 5,000-20,000 cells/well), and then an equal volume of culture medium containing 2 times the final concentration of the test compound (the final concentration ranging 10 from 1 nM to 10 μM) was added. The plates were placed in an incubator and cultured at 37° C. and 5% CO2 for 72-168 h. Before the test, an equal volume of CellTiter-Glo® Luminescent reagent was added, and the plate was incubated at room temperature for 10 min before detection using an ELISA reader (BMG LABTECH). The data were analyzed using GraphPad Prism software to obtain the IC50 value and compound fitting curve. The control compound 1 was prepared by referring to the method of Example 64 in WO2017214367.

Data set [8] deals with hERG potassium ion channel (Homo sapiens (Human), UniProt Q12809). Nature of the data set: hERG potassium channel effect test (manual patch clamp, HEK293 cells overexpressing hERG). Format: cell-based. As for the experimental part: Test Example 6: hERG Potassium Channel Effect Test
Chain of hERG potassium ion channel (Q12809 whole entry): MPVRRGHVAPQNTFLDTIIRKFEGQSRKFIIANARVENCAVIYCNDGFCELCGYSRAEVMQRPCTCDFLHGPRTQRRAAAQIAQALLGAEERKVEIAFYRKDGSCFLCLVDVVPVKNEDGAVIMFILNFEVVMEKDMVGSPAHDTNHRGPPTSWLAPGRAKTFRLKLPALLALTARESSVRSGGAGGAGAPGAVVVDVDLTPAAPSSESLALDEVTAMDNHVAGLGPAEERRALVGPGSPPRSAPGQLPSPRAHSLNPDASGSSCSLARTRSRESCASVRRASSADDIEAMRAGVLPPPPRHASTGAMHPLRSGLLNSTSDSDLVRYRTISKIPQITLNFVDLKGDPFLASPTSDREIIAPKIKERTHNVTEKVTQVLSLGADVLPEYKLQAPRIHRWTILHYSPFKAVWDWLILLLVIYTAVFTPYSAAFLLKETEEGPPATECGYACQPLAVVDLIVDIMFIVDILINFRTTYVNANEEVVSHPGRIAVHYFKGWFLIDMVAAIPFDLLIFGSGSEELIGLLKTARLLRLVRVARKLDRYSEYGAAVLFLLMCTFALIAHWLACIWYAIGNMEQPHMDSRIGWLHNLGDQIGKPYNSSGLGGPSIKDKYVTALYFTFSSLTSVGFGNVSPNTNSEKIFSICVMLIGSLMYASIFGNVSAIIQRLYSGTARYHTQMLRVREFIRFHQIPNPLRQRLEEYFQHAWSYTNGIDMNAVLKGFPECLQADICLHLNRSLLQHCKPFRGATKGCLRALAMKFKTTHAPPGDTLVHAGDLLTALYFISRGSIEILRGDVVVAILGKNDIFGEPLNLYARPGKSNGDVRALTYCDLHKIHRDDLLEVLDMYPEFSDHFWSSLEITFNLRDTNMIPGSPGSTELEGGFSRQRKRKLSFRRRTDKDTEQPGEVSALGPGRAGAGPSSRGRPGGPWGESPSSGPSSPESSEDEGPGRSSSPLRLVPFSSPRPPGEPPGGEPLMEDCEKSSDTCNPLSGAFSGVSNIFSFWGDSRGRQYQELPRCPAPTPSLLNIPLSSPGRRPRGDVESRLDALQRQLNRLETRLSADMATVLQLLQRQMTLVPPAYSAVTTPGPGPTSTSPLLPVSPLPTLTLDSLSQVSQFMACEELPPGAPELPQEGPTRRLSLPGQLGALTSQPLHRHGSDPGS
The hERG inhibition test was performed on some of the example compounds of the present disclosure using the manual electrophysiological patch clamp method. The cell line was derived from HEK293 cells that overexpressed hERG potassium ion channels. The specific experimental protocol was developed by PharmaCore Labs with reference to literature published in peer-reviewed journals and was performed by PharmaCore Labs in accordance with its standard experimental operating procedures. The highest test concentration was 30 μM.

Chain of Menin/MLL-4-43 peptide interaction (O00255 whole entry, species assumed): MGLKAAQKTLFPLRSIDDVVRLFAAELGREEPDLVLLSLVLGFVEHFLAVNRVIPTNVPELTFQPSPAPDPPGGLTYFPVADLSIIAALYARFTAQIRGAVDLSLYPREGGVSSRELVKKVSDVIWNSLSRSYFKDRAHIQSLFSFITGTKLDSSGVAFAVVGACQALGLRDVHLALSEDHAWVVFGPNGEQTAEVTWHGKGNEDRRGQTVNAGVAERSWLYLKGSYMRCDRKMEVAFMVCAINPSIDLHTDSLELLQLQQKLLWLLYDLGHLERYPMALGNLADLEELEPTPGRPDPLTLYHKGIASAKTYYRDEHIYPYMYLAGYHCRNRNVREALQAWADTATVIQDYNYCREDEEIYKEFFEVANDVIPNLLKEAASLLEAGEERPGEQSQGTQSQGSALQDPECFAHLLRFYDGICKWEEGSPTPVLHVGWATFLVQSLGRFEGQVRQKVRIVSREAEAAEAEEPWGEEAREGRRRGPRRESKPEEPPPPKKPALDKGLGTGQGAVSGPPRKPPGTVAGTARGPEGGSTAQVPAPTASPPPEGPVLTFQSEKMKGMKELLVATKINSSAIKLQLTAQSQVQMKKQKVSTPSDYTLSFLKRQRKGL

With `CCN(C(=O)c1cc(F)ccc1Oc1nncnc1N1CC2(CCN(C[C@H]3CC[C@]4(CC3)CC(C)(C)C(=O)N4)CC2)C1)C(C)C` [Example 26], the GI50 in data set [1] (Homo sapiens, OCI-AML-3, 168 h) amounted to 94 nM; in data set [2] (Homo sapiens, MV4-11, 72 h) it was 19.2 nM; in data set [7] (Homo sapiens, MOLM-13, 168 h), 162 nM. Also, the results for the half-life at 1 μM in data set [3], in data set [4] and in data set [5] were 1.33 h, 1.04 h and 0.618 h, respectively. Further, the IC50 in data set [6] came out at 7.4 nM.

As to `CC(C)N(C(=O)c1cc(F)ccc1Oc1nncnc1N1CC2(CCN(C[C@H]3CC[C@@]4(CCC(=O)N4)CC3)CC2)C1)C(C)C` [Example 8], the GI50 in data set [1] (Homo sapiens, OCI-AML-3, 168 h) stood at 142 nM; in data set [2] (Homo sapiens, MV4-11, 72 h) it was 197 nM; in data set [7] (Homo sapiens, MOLM-13, 168 h), 96.4 nM. The figures for the half-life at 1 μM in data set [3], in data set [4] and in data set [5] were 1.11 h, 1.56 h and 0.786 h, respectively. For the same compound, in data set [6], the IC50 turned out to be 67.2 nM.

Consider `[2H]C([2H])([2H])C1C[C@]2(CC[C@@H](CN3CCC4(CC3)CN(c3ncnnc3Oc3ccc(F)cc3C(=O)N(C(C)C)C(C)C)C4)CC2)NC1=O` (single isomer, unassigned) [Example 43-1], for which the GI50 in data set [1] (Homo sapiens, OCI-AML-3, 168 h) came to 92 nM; in data set [2] (72 h), 27.8 nM; in data set [7] (Homo sapiens, MOLM-13, 168 h), 133 nM. Also, the results for the half-life at 1 μM in data set [3], in data set [4] and in data set [5] were 1.17 h, 0.59 h and 0.582 h, respectively. The IC50 in data set [6] is 12.4 nM.

Regarding `CCN(C(=O)c1cc(F)ccc1Oc1nncnc1N1CC2(CCN(C[C@H]3CC[C@]4(CC3)CC(C(C)(C)O)C(=O)N4)CC2)C1)C(C)C` (single isomer, unassigned) [Example 58-1b], the GI50 in data set [1] (168 h) came to 30.2 nM; in data set [2] (72 h), 18 nM; in data set [7] (168 h), 56.9 nM. Also, the “Half life T1/2, mouse liver microsomes” value in data set [3] (0.5 mg/mL microsomal protein) was greater than 2 h. The “Half life T1/2, dog liver microsomes” value in data set [4] (Dog) was 1.14 h. In addition, the “Half life T1/2, human liver microsomes” value in data set [5] (Human) was 0.593 h. In addition, the IC50 in data set [6] was determined as 5.9 nM.

Turning to `CCN(C(=O)c1cc(F)ccc1Oc1nncnc1N1CC2(CCN(C[C@H]3CC[C@@]4(CCC(=O)N4)CC3)CC2)C1)C(C)C` [Example 7], the GI50 in data set [1] (Homo sapiens, OCI-AML-3, 168 h) is 323 nM; in data set [2] (Homo sapiens, MV4-11, 72 h) it was 137 nM; in data set [7] (Homo sapiens, MOLM-13, 168 h) it was 389 nM. For the same compound, the half-life at 1 μM is greater than 2 h in data set [3], 1 h in data set [4] and 1.3 h in data set [5]. For the same compound, the IC50 in data set [6] worked out at 62.1 nM.

As for `CCN(C(=O)c1cc(F)ccc1Oc1nncnc1N1CC2(CCN(C[C@H]3CC[C@]4(CC3)CC3(CCOCC3)C(=O)N4)CC2)C1)C(C)C` [Example 45], the GI50 in data set [1] (Homo sapiens, OCI-AML-3, 168 h) turned out to be 48.4 nM; in data set [2] (Homo sapiens, MV4-11, 72 h), 12.7 nM; in data set [7] (Homo sapiens, MOLM-13, 168 h) it was 54.1 nM. The half-life at 1 μM was greater than 2 h in data set [3], 1.53 h in data set [4] and 0.618 h in data set [5]. In addition, the IC50 in data set [6] was 2.5 nM.

For the compound `CCN(C(=O)c1cc(F)ccc1Oc1nncnc1N1CC2(CCN(C[C@H]3CC[C@]4(CC3)C[C@@H](COC)C(=O)N4)CC2)C1)C(C)C` [Example 37-2], the 50% growth inhibitory concentration (GI50) in data set [1] (Homo sapiens, OCI-AML-3, 168 h) is 40.9 nM; in data set [2] (Homo sapiens, MV4-11, 72 h) it was 15.2 nM; in data set [7] (Homo sapiens, MOLM-13, 168 h), 46.5 nM. The values for the half-life at 1 μM in data set [3], in data set [4] and in data set [5] were greater than 2 h, 1.5 h and 1.09 h, respectively. Further, the concentration for half-maximal inhibition (IC50) in data set [6] was 3.3 nM.

As to `CC(C)N(C(=O)c1cc(F)ccc1Oc1nncnc1N1CC2(CCN(C[C@H]3CC[C@]4(CC3)CC(C(C)(C)O)C(=O)N4)CC2)C1)C(C)C` (single isomer, unassigned) [Example 59-1b], the GI50 worked out at 20.1 nM in data set [1] (168 h), 9.5 nM in data set [2] (72 h) and 34.3 nM in data set [7] (168 h). Besides, the half-life at 1 μM in data set [3] stood at 1.65 h; in data set [4] it was 1.17 h; in data set [5], 0.479 h. Further, the IC50 in data set [6] came to 10.3 nM.

Take `CCN(C(=O)c1cc(F)ccc1Oc1nncnc1N1CC2(CCN(CC3CCC4(CC3)CN(C)C(=O)N4)CC2)C1)C(C)C` (single isomer, unassigned) [Example 46-1]: the GI50 turned out to be 140 nM in data set [1] (Homo sapiens, OCI-AML-3, 168 h); 100 nM in data set [2] (Homo sapiens, MV4-11, 72 h); 329 nM in data set [7] (Homo sapiens, MOLM-13, 168 h). Moreover, the half-life at 1 μM was greater than 2 h in data set [3], greater than 2 h in data set [4] and 1.31 h in data set [5]. For the same compound, the IC50 in data set [6] was 35.3 nM.

As to `CC1C[C@]2(CC[C@@H](CN3CCC4(CC3)CN(c3ncnnc3Oc3ccc(F)cc3C(=O)N(C(C)C)C(C)C)C4)CC2)NC1=O` (stereo partly shown) [Example 41-1], the GI50 worked out at 64.1 nM in data set [1] (Homo sapiens, OCI-AML-3, 168 h); 25.5 nM in data set [2] (Homo sapiens, MV4-11, 72 h); 52.7 nM in data set [7] (Homo sapiens, MOLM-13, 168 h). In addition, the IC50 in data set [6] is 10.8 nM; in data set [8] (manual patch clamp, highest test concentration 30 μM), greater than 30000 nM. In addition, in data set [8] (human, HEK293 cells overexpressing hERG potassium ion channels, 30 μm, read-out: Average inhibition rate of hERG current at the highest compound tested concentration), the inhibition at 30 μM came to 13.2%.

With `CCN(C(=O)c1cc(F)ccc1Oc1nncnc1N1CC2(CCN(C[C@H]3CC[C@]4(CC3)CC(C(C)(C)O)C(=O)N4)CC2)C1)C(C)C` (single isomer, unassigned) [Example 58-1a], the GI50 in data set [1] (Homo sapiens, OCI-AML-3, 168 h) was determined as 22.9 nM; in data set [2] (Homo sapiens, MV4-11, 72 h), 17.7 nM; in data set [7] (Homo sapiens, MOLM-13, 168 h), 54.4 nM. Moreover, the half-life at 1 μM in data set [3] is greater than 2 h; in data set [4] it was 1.16 h; in data set [5], 0.396 h. In addition, in data set [6], the IC50 was determined as 5.4 nM.

Broadly, the GI50 is the concentration at which growth is held to half of that of the control. Low values mean greater sensitivity of the cells, high ones lower sensitivity of the cells. In general, IC50 refers to the concentration that gives 50% inhibition.
